Source: PMC6093232, “PROMIS, global analysis of PROtein–metabolite interactions using size separation in Arabidopsis thaliana” (The Journal of Biological Chemistry, 2018)
pKd: −log10 of the molar value. Read-outs that look alike come from different tables or passages of the source. Where a SMILES comes first, the peptide text is derived from it.

Tests used:
[1] = biological target: T1, KPHMT1 (Arabidopsis thaliana, UniProt O82357); experiment: microscale thermophoresis; type: binding
T1 construct: N-terminal 144 bp of CDS (mitochondrial signal peptide, 48 residues) deleted; N-terminal His6 (pET300), E. coli BL21 Star (DE3); purified per Results, bacterial lysate used directly per Methods; RED-Tris-NTA labelled
T1 sequence (O82357 49-347): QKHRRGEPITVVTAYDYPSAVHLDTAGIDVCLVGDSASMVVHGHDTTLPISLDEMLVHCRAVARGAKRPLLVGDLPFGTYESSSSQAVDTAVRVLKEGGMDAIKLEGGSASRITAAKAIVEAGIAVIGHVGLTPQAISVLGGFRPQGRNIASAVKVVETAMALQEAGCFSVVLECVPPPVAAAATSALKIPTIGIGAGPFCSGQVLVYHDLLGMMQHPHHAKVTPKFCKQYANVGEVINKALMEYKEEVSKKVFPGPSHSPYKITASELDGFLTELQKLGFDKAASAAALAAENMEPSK

[2] = biological target: T2, GAPCP1 (Arabidopsis thaliana, UniProt Q9SAJ6); experiment: nanoDSF thermal shift; type: binding; conditions: 25 μM ligand; 0.2-0.25 mg/ml protein; PBS
T2 construct: N-terminal His6 (pDEST17), cloned from Arabidopsis cDNA, expressed in E. coli, SEC purified
T2 sequence (Q9SAJ6 whole entry): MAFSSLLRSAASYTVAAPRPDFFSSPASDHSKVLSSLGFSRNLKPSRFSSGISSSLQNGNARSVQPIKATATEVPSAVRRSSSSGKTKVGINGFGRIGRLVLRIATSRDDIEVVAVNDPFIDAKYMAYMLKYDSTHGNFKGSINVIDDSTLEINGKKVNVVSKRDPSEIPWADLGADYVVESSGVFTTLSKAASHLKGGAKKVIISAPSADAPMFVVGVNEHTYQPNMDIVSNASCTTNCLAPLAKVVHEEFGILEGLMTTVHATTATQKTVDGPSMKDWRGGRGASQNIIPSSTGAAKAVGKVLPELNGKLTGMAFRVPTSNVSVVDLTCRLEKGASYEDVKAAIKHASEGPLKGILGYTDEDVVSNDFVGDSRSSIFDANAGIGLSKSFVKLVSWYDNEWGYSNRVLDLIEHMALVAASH

[3] = biological target: T3, GAPCP2 (Arabidopsis thaliana, UniProt Q5E924); experiment: nanoDSF thermal shift; type: binding; conditions: 50 μM ligand; 0.2-0.25 mg/ml protein; PBS
T3 construct: N-terminal His6 (pDEST17), cloned from Arabidopsis cDNA, expressed in E. coli, SEC purified
T3 sequence (Q5E924 67-420): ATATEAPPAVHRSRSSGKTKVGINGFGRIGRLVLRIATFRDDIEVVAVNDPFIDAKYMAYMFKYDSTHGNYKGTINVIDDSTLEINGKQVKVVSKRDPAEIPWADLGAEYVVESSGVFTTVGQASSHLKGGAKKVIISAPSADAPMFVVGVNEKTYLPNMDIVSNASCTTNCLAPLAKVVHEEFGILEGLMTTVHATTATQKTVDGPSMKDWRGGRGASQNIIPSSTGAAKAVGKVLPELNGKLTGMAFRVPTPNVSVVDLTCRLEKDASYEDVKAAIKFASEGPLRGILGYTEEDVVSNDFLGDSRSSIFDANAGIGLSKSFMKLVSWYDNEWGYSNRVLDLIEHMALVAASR

[4] = biological target: T2, GAPCP1; experiment: biochemical; set-up: nanoDSF thermal shift, intrinsic fluorescence ratio 350/330 nm, Prometheus NT.48; conditions: 1x PBS
Method: (§1) Protein thermal stability measurements GAPC1/2, GAPCP1, and GAPCP2 proteins were obtained as described above, and the human GAPDH recombinant protein was obtained from a commercial supplier (Sigma) and stored in 10 mM Tris buffer (pH 7.5, 0.5 M NaCl). Tyr–Asp (25 μM), 3PGA (250 μM), and other dipeptides (25 μM) were prepared in 1× PBS buffer for the measurements using GAPC1/2 protein. For GAPCP1 Tyr–Asp (25 μM), 3PGA (250 μM) and other dipeptides (25 μM) were prepared in 1× PBS buffer, whereas for GAPCP2 Tyr–Asp (50 μM), 3PGA (250 μM) and other dipeptides (50 μM) were prepared in 1× PBS buffer. In addition, for the human GAPDH Tyr–Asp (500 μM), 3PGA (500 μM) and other dipeptides (500 μM) were prepared in Tris buffer (10 mM Tris-HCl, pH 7.5, 0.5 M NaCl). In accordance, GAPDH (1 μM) and GAPCs (0.2–0.25 mg/ml) were diluted using Tris or PBS buffer, respectively. Capillaries were loaded into the Prometheus NT.48 (Nanotemper). Unfolding was detected during heating in a linear thermal ramp (2 °C min^−1, 20–90 °C) with an excitation power of 60–100%. Temperature-dependent protein unfolding was determined from changes in tryptophan and tyrosine fluorescence at emission wavelengths of 350 and 330 nm. Melting temperatures were determined by detecting the maximum of the first derivative of the fluorescence ratios (F350 nm/F330 nm) as described previously ([43]). To validate the binding, we first tested a commercially available human homolog of GAPC1, GAPDH. Subsequently, plant GAPC1/2, GAPCP1, and GAPCP2 were overexpressed and purified from E. coli. Binding was probed using nano-DSF technology from Nanotemper (Prometheus NT.48; see under “Experimental procedures”). Prometheus NT.48 traces protein thermal stability by recording changes in the tryptophan residues during protein unfolding in an increasing temperature gradient. The melting temperature (Tm) of GAPDH was calculated as 60 °C, GAPC1/2 to 54 °C, GAPCP1 to 55 °C, and GAPCP2 to 55 °C (Fig. 7, C–F; Tables S5 and S6). […] Analogous results were obtained for Tyr–Asp. More specifically, 500 μM Tyr–Asp stabilized GAPDH by ∼1.1 °C, whereas 25–50 μM Tyr–Asp destabilized GAPC1/2, GAPCP1, and GAPCP2 by ∼1, 2, and 1.5 °C, respectively (Fig. 7, C–F; Tables S5 and S6). The obtained results validate the interaction between Tyr–Asp and plant glyceraldehyde-3-P dehydrogenases. The interaction is conserved in the human enzyme.

[5] = biological target: T3, GAPCP2; experiment: biochemical; set-up: nanoDSF thermal shift, intrinsic fluorescence ratio 350/330 nm, Prometheus NT.48; conditions: 1x PBS
Method: as §1

[6] = biological target: T4, GAPDH (Homo sapiens, UniProt P04406); experiment: biochemical; set-up: nanoDSF thermal shift, intrinsic fluorescence ratio 350/330 nm, Prometheus NT.48; conditions: 10 mM Tris pH 7.5, 0.5 M NaCl
T4 construct: commercial human recombinant protein (Sigma)
T4 sequence (P04406 2-335): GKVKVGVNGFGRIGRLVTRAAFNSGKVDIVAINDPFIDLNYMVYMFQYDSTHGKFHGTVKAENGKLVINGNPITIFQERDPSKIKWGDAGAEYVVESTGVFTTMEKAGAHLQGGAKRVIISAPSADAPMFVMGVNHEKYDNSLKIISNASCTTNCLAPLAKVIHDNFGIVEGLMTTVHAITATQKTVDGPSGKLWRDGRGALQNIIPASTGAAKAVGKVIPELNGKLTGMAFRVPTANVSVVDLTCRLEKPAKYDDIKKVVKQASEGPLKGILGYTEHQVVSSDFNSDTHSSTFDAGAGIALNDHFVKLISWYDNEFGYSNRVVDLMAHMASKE
Method: as §1

[7] = biological target: T2, GAPCP1; experiment: biochemical; set-up: nanoDSF thermal shift; Tm from ratio of tryptophan fluorescence at 350 and 330 nm
Method: (§2) GAPC1/2, GAPCP1, and GAPCP2 proteins were obtained as described above, and the human GAPDH recombinant protein was obtained from a commercial supplier (Sigma) and stored in 10 mM Tris buffer (pH 7.5, 0.5 M NaCl). Tyr–Asp (25 μM), 3PGA (250 μM), and other dipeptides (25 μM) were prepared in 1× PBS buffer for the measurements using GAPC1/2 protein. For GAPCP1 Tyr–Asp (25 μM), 3PGA (250 μM) and other dipeptides (25 μM) were prepared in 1× PBS buffer, whereas for GAPCP2 Tyr–Asp (50 μM), 3PGA (250 μM) and other dipeptides (50 μM) were prepared in 1× PBS buffer. In addition, for the human GAPDH Tyr–Asp (500 μM), 3PGA (500 μM) and other dipeptides (500 μM) were prepared in Tris buffer (10 mM Tris-HCl, pH 7.5, 0.5 M NaCl). […] Unfolding was detected during heating in a linear thermal ramp (2 °C min^−1, 20–90 °C) with an excitation power of 60–100%. Temperature-dependent protein unfolding was determined from changes in tryptophan and tyrosine fluorescence at emission wavelengths of 350 and 330 nm. Melting temperatures were determined by detecting the maximum of the first derivative of the fluorescence ratios (F350 nm/F330 nm) as described previously ([43]). […] The melting temperature (Tm) of GAPDH was calculated as 60 °C, GAPC1/2 to 54 °C, GAPCP1 to 55 °C, and GAPCP2 to 55 °C (Fig. 7, C–F; Tables S5 and S6). […]

[8] = biological target: T3, GAPCP2; experiment: biochemical; set-up: nanoDSF thermal shift; Tm from ratio of tryptophan fluorescence at 350 and 330 nm
Method: as §2

[9] = biological target: T5, MTI (Arabidopsis thaliana, UniProt Q9ZUG4); experiment: microscale thermophoresis; type: binding
T5 construct: gene At2g05830; N-terminal His6 (pET300), E. coli BL21 Star (DE3), Ni-NTA purified; RED-Tris-NTA labelled
T5 sequence (Q9ZUG4 1-374): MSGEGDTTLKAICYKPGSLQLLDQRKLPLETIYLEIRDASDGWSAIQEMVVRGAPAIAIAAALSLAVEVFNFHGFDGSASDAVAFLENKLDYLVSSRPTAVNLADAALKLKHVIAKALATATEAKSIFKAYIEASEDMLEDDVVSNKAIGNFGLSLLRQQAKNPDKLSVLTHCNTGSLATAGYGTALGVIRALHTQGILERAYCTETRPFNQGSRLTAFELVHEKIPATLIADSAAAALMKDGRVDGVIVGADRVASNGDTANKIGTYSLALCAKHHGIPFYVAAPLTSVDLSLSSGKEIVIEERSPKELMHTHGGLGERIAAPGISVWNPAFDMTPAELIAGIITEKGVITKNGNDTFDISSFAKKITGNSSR

[10] = biological target: T4, GAPDH; experiment: nanoDSF thermal shift; type: binding; conditions: 500 μM ligand; 1 μM protein; 10 mM Tris-HCl pH 7.5, 0.5 M NaCl

| SMILES | ΔTm at 25 µM [4] | ΔTm at 50 µM [5] | ΔTm at 500 µM [6] | also measured |
| --- | --- | --- | --- | --- |
| CC(C)(CO)[C@@H](O)C(=O)NCCC(=O)O [pantothenate] | – | – | – | pKd [1]: 3.30 |
| N[C@@H](Cc1ccc(O)cc1)C(=O)N[C@@H](CC(=O)O)C(=O)O [Tyr–Asp] (H-Tyr-Asp-OH) | – | – | – | dTm (destabilized) [2]: ~ 2 °C; dTm (destabilized) [3]: ~ 1.5 °C; ΔTm at 25 µM ([4]; experiment 1): -1.56 °C; ΔTm at 25 µM ([4]; experiment 2): -2.09 °C; ΔTm at 25 µM ([4]; experiment 3): -2.2 °C; ΔTm at 25 µM ([4]; experiment 4): -2.06 °C; ΔTm at 50 µM ([5]; experiment 1): -1.6 °C; ΔTm at 50 µM ([5]; experiment 2): -1.58 °C; ΔTm at 50 µM ([5]; experiment 3): -1.55 °C; ΔTm at 50 µM ([5]; experiment 4): -1.23 °C; ΔTm at 500 µM ([6]; experiment 1): 2.2 °C; ΔTm at 500 µM ([6]; experiment 2): 1.31 °C; ΔTm at 500 µM ([6]; experiment 4): 1.06 °C; ΔTm at 25 µM [7]: -2.06 °C; ΔTm at 50 µM [8]: -1.23 °C |
| CC(C)C[C@H](NC(=O)[C@@H](N)Cc1ccc(O)cc1)C(=O)O [TyrLeu] (H-Tyr-Leu-OH) | 0.15 °C | 1.67 °C | 2.2 °C | – |
| CSC[C@H]1O[C@@H](n2cnc3c(N)ncnc32)[C@H](O)[C@@H]1O [MTA] | – | – | – | pKd [9]: 5.40 |
| N[C@@H](Cc1c[nH]cn1)C(=O)N[C@@H](Cc1ccc(O)cc1)C(=O)O [His–Tyr] (H-His-Tyr-OH) | -0.02 °C | 0.22 °C | -1.2 °C | dTm [10]: Tm of the human GAPDH was affected by the presence of two other Tyr-containing dipeptides |
| CC(C)C[C@H](N)C(=O)N[C@@H](Cc1ccccc1)C(=O)O [LeuPhe] (H-Leu-Phe-OH) | -0.33 °C | 0.2 °C | 0.2 °C | – |
| CSCC[C@H](NC(=O)[C@@H](N)[C@@H](C)O)C(=O)O [ThrMet] (H-Thr-Met-OH) | -0.01 °C | 0.66 °C | 0.2 °C | – |
| NCC(=O)N1CCC[C@H]1C(=O)O [GlyPro] (H-Gly-Pro-OH) | -0.11 °C | 0.55 °C | 0.1 °C | – |
| O=C(O)CC[C@H](NC(=O)[C@@H]1CCCN1)C(=O)O [ProGlu] (H-Pro-Glu-OH) | -0.1 °C | -0.12 °C | 0.1 °C | – |
